Experiment [1] has as its target T1, AaOR8/AaOR7 protein complex (Aedes aegypti, UniProt Q16MN0).
T1 sequence (Q16MN0 32-422): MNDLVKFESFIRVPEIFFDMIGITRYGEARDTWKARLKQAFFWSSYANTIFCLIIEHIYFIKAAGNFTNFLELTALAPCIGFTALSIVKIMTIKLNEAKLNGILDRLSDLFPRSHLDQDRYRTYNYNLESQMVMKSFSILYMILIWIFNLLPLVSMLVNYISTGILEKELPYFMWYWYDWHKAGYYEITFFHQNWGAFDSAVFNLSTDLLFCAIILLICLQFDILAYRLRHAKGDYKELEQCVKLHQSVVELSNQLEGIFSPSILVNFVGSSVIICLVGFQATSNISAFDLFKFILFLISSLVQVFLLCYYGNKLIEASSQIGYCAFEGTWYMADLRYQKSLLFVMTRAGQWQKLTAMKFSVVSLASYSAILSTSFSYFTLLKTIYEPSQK
T1 sequence (Q178U6 1-478 partner): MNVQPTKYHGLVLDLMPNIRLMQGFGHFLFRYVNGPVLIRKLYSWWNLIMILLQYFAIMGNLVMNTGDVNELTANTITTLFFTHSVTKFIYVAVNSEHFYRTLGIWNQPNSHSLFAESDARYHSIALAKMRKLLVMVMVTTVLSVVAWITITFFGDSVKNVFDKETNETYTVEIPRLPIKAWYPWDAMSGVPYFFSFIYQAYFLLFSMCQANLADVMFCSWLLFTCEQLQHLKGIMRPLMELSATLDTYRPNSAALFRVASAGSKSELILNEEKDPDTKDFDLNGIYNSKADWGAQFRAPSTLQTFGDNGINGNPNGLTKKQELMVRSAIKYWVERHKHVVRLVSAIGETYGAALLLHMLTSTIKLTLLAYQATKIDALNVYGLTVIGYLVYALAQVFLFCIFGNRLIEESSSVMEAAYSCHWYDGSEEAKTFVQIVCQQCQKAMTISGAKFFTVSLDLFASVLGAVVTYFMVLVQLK
Briefly: Two-microelectrode voltage clamp of Xenopus oocytes co-expressing AaOr8 and AaOr7; odorant-induced whole-cell currents. As to conditions: Xenopus oocytes co-expressing AaOR8 and AaOR7, holding potential −80 mV, 8 sec odorant exposure, non-linear regression curve fit; read-out: EC50 (half maximal effective concentration) of AaOR8. The class given is cell-based. The method, then: Along with AaOr8, we co-expressed AaOr7 in Xenopus oocytes and electrophysiological responses (Fig. 1B) to each enantiomer were measured using the two-microelectrode voltage clamp technique. […] We established the concentration-response relationships for each compound (Fig. 1C) and their associated half maximal effective concentration (EC50) as a sensitivity criterion. […] Part of the response to the (S)-(+)-enantiomer may have been caused by the presence of trace amounts (1 part per thousand) of the (R)-(—)-enantiomer (see Material & Methods).
AaOr7 and AaOr8 cRNAs were synthesized from linearized pSP64DV expression vectors (Dr. Zwiebel, Vanderbilt University) using the mMESSAGE mMACHINE SP6 kit (Ambion). Following mechanical disruption of the Xenopus ovaries, stage […] oocytes were treated for 30 min at room temperature under 150 rpm shaking with a 2 mg/mL collagenase (SIGMA, C6895) solution in OR-2 buffer (5 mM HEPES, 1 mM Na2HPO4, 82.5 mM NaCl, and 2.5 mM MgCl2 [pH 7.6]). All procedures were performed in accordance with the NIH Institutional Animal Care and Use Committee and NIH guidelines. Oocytes were subsequently washed 5 times with OR-2 buffer, 5 times with MBSH buffer (10 mM HEPES, 2.4 mM NaHCO3, […], 1 mM KCl, 0.82 mM MgSO4, 0.41 mM CaCl2 and 0.33 mM (CaNO3)2, [pH 7.6]), 5 times with MBSH supplemented with 50 µg/ML gentamycin and 5 times with Ringer's buffer (96 mM NaCl, 2 mM KCl, 5 mM MgCl2, 6H2O, 5 mM HEPES and 0.8 mM CaCl2 [pH 7.6]) supplemented with 5% heat-inactivated horse serum, 50 µg/mL tetracycline, 100 µg/mL streptomycin and 550 µg/mL sodium pyruvate. Individual oocytes were allowed to recover overnight prior to injection with 10 ng of each cRNA and were recorded 4 to 6 days post-injection.
Whole-cell currents were recorded using the two-microelectrode voltage clamp technique, [58]. Odorants were dissolved in dimethyl sulfoxide (DMSO) at a 1∶10 ratio so that stock solutions could be made. Prior to recording, stock solutions were diluted in Ringer's solution [pH 7.6] (96 mM NaCl, 2 mM KCl, 5 mM MgCl2, 5 mM HEPES and 0.8 mM CaCl2) to the indicated concentrations before being applied to Xenopus oocytes in a RC-3Z oocyte recording chamber (Warner Instruments). Oocytes were continuously perfused by either pure Ringer's solution or exposed for 8 sec to serial dilutions of odorants dissolved in Ringer's solution. Odorant-induced currents were recorded with an OC-725C oocyte clamp (Warner Instruments) at a holding potential of −80 mV. Between stimulations, oocytes were allowed to return to their membrane resting potential by washing out the odorants using pure Ringer's solution. Data acquisition and analysis were carried out with Digidata 1440A and pCLAMP10 software (Axon Instruments).
Statistical analyses (GraphPad Prism5 Software, Inc.) of the logEC50 means were performed using an ordinary one-way ANOVA in conjunction with the Tukey Kramer multiple comparison post test (95% confidence interval). […] In all figures, graphical results are shown as means and standard error of the mean for a minimum of six independent oocytes. EC50 values for individual compounds were extrapolated using the non-linear regression curve fit function provided in Prism5.

For experiment [2], the system named is Apis mellifera OR11 (AmOR11). As to conditions: Xenopus oocytes; cited from earlier work.
A further experiment concerns Bombyx mori OR1 (BmOR1). As to conditions: oocyte expression system; cited from earlier work.

As for `CCCCCC(O)CC` (stereo not drawn) [3-Octanol], in experiment [1], the EC50 was found to be 5.82 µM. As for `C=CC(O)CCCCCC` (stereo not drawn) [1-Nonen-3-ol], the EC50 in experiment [1] is 5.14 µM.

`CC(=O)CCCCCC=CC(=O)O` [9-oxo-2-decenoic acid]: the “concentration range of AmOR11 response” value in experiment [2] was “nanomolar range”. For `C=CC(O)CCCC` (stereo not drawn) [1-Hepten-3-ol], the EC50 in experiment [1] worked out at 17 µM. As for `C=CC(=O)CCCCC` [1-Octen-3-one], the EC50 in experiment [1] was found to be 23 µM. Turning to `C=C[C@H](O)CCCCC` [(R)-(—)-1-octen-3-ol], the EC50 in experiment [1] stood at 0.158 µM. Turning to `CCC/C=C\C=C\CCCCCCCCCO` [bombykol], in the experiment with Bombyx mori OR1 (BmOR1), the “concentration range of BmOR1 response” value is “micromolar range”. On to `C=CCC(O)CCCC` (stereo not drawn) [1-Octen-4-ol], for which the EC50 in experiment [1] came out at 39.1 µM. The same measure, in the same setting: then `C=C[C@@H](O)CCCCC` [(S)-(+)-1-octen-3-ol], with 17.2 µM.

(Values after publication PMC2737144, “Characterization of an Enantioselective Odorant Receptor in the Yellow Fever Mosquito Aedes aegypti” (PLoS ONE, 2009).)
